# Experimental data as given in ChEMBL document CHEMBL3856230, “Structure-Activity Relationships of Di-2-pyridylketone, 2-Benzoylpyridine, and 2-Acetylpyridine Thiosemicarbazones for Overcoming Pgp-Mediated Drug Resistance” (J Med Chem, 2016).
# Activity calls are given as the source filed them. The rule behind the calls is not given here.
# Key:
# Homo sapiens [1] = species: Homo sapiens; test: Inhibition of P-gp (unknown origin) in P-gp enriched membranes assessed as […] at 100 uM in presence of Mg2-ATP after 40 mins by luciferase reporter gen assay relative to control; type: cell membranes
# [2] = (§1) Antiproliferative activity against human KB3-1 cells after 24 hrs in presence of P-gp inhibitor elacridar by MTT assay; type: functional, cell-based; conditions: KB 3-1, 24 h
# Homo sapiens [3] = species: Homo sapiens; test: Substrate activity at P-gp (unknown origin) in P-gp enriched membranes assessed as increase in ATPase activity at 50 uM in presence of Mg2-ATP after 40 mins by luciferase reporter gen assay relative to control; type: cell membranes
# [4] = (§2) Antiproliferative activity against human KBV1 cells over expressing P-gp after 24 hrs in presence of P-gp inhibitor elacridar by MTT assay; type: functional, cell-based; conditions: KB-V1, 24 h
# [5] = Antiproliferative activity against human KBV1 cells over expressing P-gp after 24 hrs by MTT assay; type: functional, cell-based; conditions: KB-V1, 24 h
# [6] = (§3) Antiproliferative activity against human KB3-1 cells after 24 hrs by MTT assay; type: functional, cell-based; conditions: KB 3-1, 24 h
# KBV1 [7] = test: Induction of P-gp-mediated lysosomal membrane permeabilization in human KBV1 cells over expressing P-gp assessed as cathepsin D release from lysosome to cytosol at 25 uM after 24 hrs by TexasRed staining based immunofluorescence microscopic analysis; type: cell-based
# KB-V1 [8] = test: Induction of oxidative stress-dependent lysosomal membrane permeabilization in human KBV1 cells over expressing P-gp assessed as decrease in cathepsin D and LAMP2 lysosomal colocalization at 25 uM after 24 hrs by TexasRed staining based immunofluorescence microscopic analysis; type: functional, cell-based
# KBV1 [9] = test: Induction of P-gp-mediated lysosomal membrane permeabilization in human KBV1 cells over expressing P-gp assessed as increase in LAMP2 fluorescence at 25 uM after 24 hrs by TexasRed staining based immunofluorescence microscopic analysis; type: cell-based
# KB 3-1 [10] = test: as §1; type: functional, cell-based
# [11] = Selectivity ratio of IC50 for human KB31 cells to IC50 for human KBV1 cells over expressing P-gp; type: functional
# KB-V1 [12] = test: Induction of copper-dependent lysosomal membrane permeabilization in human KBV1 cells over expressing P-gp assessed as decrease in cathepsin D and LAMP2 lysosomal colocalization at 25 uM after 24 hrs by TexasRed staining based immunofluorescence microscopic analysis; type: functional, cell-based
# KB 3-1 [13] = test: as §3; type: functional, cell-based
# KB-V1 [14] = test: as §2; type: functional, cell-based
# KB-V1 [15] = test: Induction of copper-dependent lysosomal membrane permeabilization in human KBV1 cells over expressing P-gp assessed as decrease in cathepsin D and LAMP2 lysosomal colocalization at 10 uM after 24 hrs by TexasRed staining based immunofluorescence microscopic analysis; type: functional, cell-based
# KB-V1 [16] = test: Induction of oxidative stress-dependent lysosomal membrane permeabilization in human KBV1 cells over expressing P-gp assessed as decrease in cathepsin D and LAMP2 lysosomal colocalization at 10 uM after 24 hrs by TexasRed staining based immunofluorescence microscopic analysis; type: functional, cell-based
# KBV1 [17] = test: Induction of P-gp-mediated lysosomal membrane permeabilization in human KBV1 cells over expressing P-gp assessed as cathepsin D release from lysosome to cytosol at 10 uM after 24 hrs by TexasRed staining based immunofluorescence microscopic analysis; type: cell-based
# KBV1 [18] = test: Induction of P-gp-mediated lysosomal membrane permeabilization in human KBV1 cells over expressing P-gp assessed as increase in LAMP2 fluorescence at 10 uM after 24 hrs by TexasRed staining based immunofluorescence microscopic analysis; type: cell-based
compound,measurement,setting,value
SODIUM ORTHOVANAD,fold change (FC),Homo sapiens [1],11.9
NC(=S)N/N=C/c1ncccc1N [TRIAPINE],IC50,[2],> 800 µM
same,fold change (FC),Homo sapiens [3],4.6
same,IC50,[4],> 800 µM
same,IC50,[5],> 800 µM
same,IC50,[6],> 800 µM
CN(C)C(=S)N/N=C(/c1ccccc1)c1ccccn1,Activity,KBV1 [7],Active
same,Activity,KB-V1 [8],Active
same,Activity,KBV1 [9],Active
same,Activity,KB 3-1 [10],Active
same,fold change (FC),Homo sapiens [3],7.9
same,Ratio IC50,[11],13.2
same,Activity,KB-V1 [12],Active
same,Activity,KB 3-1 [13],Active
C/C(=N/NC(=S)N(C)C)c1ccccn1,Activity,KB 3-1 [10],Active
same,fold change (FC),Homo sapiens [3],5.1
same,Activity,KB-V1 [14],Active
same,Ratio IC50,[11],2.1
same,Activity,KB 3-1 [13],Active
CN(/N=C(\c1ccccc1)c1ccccn1)C(N)=S,IC50,[2],> 800 µM
same,fold change (FC),Homo sapiens [3],5.2
same,IC50,[4],> 800 µM
same,IC50,[5],> 800 µM
same,IC50,[6],> 800 µM
CN(C)C(=S)NN=C(c1ccccn1)c1ccccn1,Activity,KB-V1 [15],Active
same,Activity,KB-V1 [16],Active
same,Activity,KB 3-1 [10],Active
same,fold change (FC),Homo sapiens [3],6.6
same,Activity,KBV1 [17],Active
same,Activity,KBV1 [18],Active
same,Activity,KB 3-1 [13],Active
CN(C(=S)NN=C(c1ccccn1)c1ccccn1)C1CCCCC1,Activity,KBV1 [7],Active
same,Activity,KB-V1 [8],Active
same,Activity,KBV1 [9],Active
same,Activity,KB 3-1 [10],Active
same,fold change (FC),Homo sapiens [3],7.4
same,Ratio IC50,[11],8.1
same,Activity,KB-V1 [12],Active
same,Activity,KB 3-1 [13],Active
